According to ChEMBL document CHEMBL1138324, “Synthesis and nicotinic acetylcholine receptor binding properties of bridged and fused ring analogues of epibatidine” (J Med Chem, 2007):

How the values were obtained:
Mus musculus [1] = experiment: Inhibition of nicotine-induced antinociceptive effect in sc dosed mouse by tail flick test; format: functional
[2] = biological target: T1, Neuronal acetylcholine receptor; alpha4/beta2 (Homo sapiens, UniProt P17787+P43681); experiment: Displacement of [3H]epibatidine from alpha-4-beta-2 nAChR; format: protein-complex assay
Mus musculus [3] = experiment: Antinociceptive effect in mouse at 10 mg/kg by hot plate test; format: functional
Mus musculus [4] = experiment: Antinociceptive effect in mouse at 10 mg/kg by tail flick test; format: functional
Mus musculus [5] = experiment: Inhibition of nicotine-induced antinociceptive effect in mouse at 15000 ug/kg, sc by hot plate test; format: functional
Mus musculus [6] = experiment: Inhibition of nicotine-induced hypothermia in mouse assessed as change in body temperature at 15000 ug/kg, sc; format: functional; design: scale not given: the % may be the effect or the level left
Mus musculus [7] = experiment: Effect on hypothermia in mouse assessed as change in body temperature at 10 mg/kg; format: functional
[8] = biological target: Neuronal acetylcholine receptor subunit alpha-7 (Homo sapiens) (UniProt P36544); experiment: Displacement of [125I]iodoMLA from alpha-7 nAChR at 50 nM
Mus musculus [9] = species: Mus musculus; experiment: Antinociceptive effect in mouse by tail flick test; format: functional
Mus musculus [10] = species: Mus musculus; experiment: Antinociceptive effect in mouse by hot plate test; format: functional
Mus musculus [11] = species: Mus musculus; experiment: Effect on hypothermia in mouse assessed as change in body temperature; format: functional
[12] = biological target: T1, Neuronal acetylcholine receptor; alpha4/beta2; experiment: Displacement of [3H]epibatidine from alpha-4-beta-2 nAChR at 31.6 uM; format: protein-complex assay
Mus musculus [13] = experiment: Inhibition of nicotine-induced hypothermia in mouse assessed as change in body temperature at 0.5 ug/kg, sc; format: functional; design: scale not given: the % may be the effect or the level left
Mus musculus [14] = experiment: Inhibition of nicotine-induced antinociceptive effect in mouse at 0.5 ug/kg, sc by hot plate test; format: functional
Mus musculus [15] = experiment: Inhibition of nicotine-induced hypothermia in mouse assessed as change in body temperature at 5000 ug/kg, sc; format: functional; design: scale not given: the % may be the effect or the level left
Mus musculus [16] = experiment: Inhibition of nicotine-induced antinociceptive effect in sc dosed mouse by hot plate test; format: functional

Sequence of Neuronal acetylcholine receptor subunit alpha-7 (Homo sapiens) (P36544 whole entry): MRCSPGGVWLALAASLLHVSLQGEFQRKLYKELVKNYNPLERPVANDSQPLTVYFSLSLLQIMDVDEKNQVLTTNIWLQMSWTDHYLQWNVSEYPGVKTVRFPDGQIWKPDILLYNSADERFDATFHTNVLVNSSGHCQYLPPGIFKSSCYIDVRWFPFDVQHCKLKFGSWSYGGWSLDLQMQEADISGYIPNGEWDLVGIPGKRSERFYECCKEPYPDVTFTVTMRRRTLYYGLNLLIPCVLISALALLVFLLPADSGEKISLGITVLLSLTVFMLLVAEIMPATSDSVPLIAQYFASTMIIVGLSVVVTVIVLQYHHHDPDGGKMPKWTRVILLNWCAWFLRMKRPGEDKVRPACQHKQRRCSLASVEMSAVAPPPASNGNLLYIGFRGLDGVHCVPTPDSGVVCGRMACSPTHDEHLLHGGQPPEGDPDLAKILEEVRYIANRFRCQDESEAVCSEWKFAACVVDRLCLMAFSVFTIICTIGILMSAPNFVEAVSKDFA
T1 sequence (P17787 whole entry): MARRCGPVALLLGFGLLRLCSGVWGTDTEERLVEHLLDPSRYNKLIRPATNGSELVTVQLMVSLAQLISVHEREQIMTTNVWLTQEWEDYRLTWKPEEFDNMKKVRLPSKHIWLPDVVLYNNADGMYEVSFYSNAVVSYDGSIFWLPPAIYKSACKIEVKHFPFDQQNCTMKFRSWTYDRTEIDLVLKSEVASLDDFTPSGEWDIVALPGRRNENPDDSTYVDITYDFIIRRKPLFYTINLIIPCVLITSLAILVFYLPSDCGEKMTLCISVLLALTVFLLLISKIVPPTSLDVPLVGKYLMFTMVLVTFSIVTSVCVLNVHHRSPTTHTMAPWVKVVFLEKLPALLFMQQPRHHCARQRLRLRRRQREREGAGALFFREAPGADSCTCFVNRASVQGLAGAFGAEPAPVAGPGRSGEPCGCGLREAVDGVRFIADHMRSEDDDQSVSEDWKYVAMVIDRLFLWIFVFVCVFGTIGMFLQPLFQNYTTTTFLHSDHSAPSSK
T1 sequence (P43681 whole entry): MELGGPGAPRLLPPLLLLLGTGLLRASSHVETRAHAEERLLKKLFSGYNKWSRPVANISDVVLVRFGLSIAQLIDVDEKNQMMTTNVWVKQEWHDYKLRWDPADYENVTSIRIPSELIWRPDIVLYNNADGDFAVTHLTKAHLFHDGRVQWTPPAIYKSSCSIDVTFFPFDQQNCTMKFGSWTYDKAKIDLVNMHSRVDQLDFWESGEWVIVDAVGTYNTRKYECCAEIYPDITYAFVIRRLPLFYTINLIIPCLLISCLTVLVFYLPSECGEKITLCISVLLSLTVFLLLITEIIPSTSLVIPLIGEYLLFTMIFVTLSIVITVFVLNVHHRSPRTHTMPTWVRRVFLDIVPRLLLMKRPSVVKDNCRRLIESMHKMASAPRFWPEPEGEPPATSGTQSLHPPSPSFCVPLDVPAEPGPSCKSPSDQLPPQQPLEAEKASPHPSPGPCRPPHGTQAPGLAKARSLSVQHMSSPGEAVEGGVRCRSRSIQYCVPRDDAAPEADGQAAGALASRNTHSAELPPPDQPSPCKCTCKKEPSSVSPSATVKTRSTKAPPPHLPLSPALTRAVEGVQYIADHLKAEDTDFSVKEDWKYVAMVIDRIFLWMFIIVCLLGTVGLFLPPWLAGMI

Cc1nc(Cl)ccc1C1CC2CCC1N2 (stereo not drawn)
AD50 (Mus musculus [1]): 9000 µg/kg | Ki [2]: 256 nM | Activity (Mus musculus [3]): 14% | Activity (Mus musculus [4]): 1% | inhibition in vivo at 15 mg/kg (Mus musculus [5]): 10% | Activity (Mus musculus [6]): 0% | Activity (Mus musculus [7]): 0%

Clc1ccc2c(n1)CN1C3CCC1C2C3 (stereo not drawn)
Activity (Mus musculus [3]): 17% | Activity (Mus musculus [4]): 3% | Activity (Mus musculus [7]): 0%

Nc1ccc2c(n1)CN1C3CCC1C2C3 (stereo not drawn)
Ki [2]: 7370 nM | Activity (Mus musculus [3]): 10% | Activity (Mus musculus [4]): 4% | Activity (Mus musculus [7]): 0%

Clc1cc2c(cn1)C1CC3CCC1N3C2 (stereo not drawn)
Ki [2]: 3330 nM | Activity (Mus musculus [3]): 18% | Activity (Mus musculus [4]): 2% | Activity (Mus musculus [7]): 0%

Clc1ccc(C2CC3NC2c2ccccc23)cn1 (stereo not drawn)
Ki [2]: 65.2 nM | Activity [8]: 0%

Nc1cc2c(cn1)C1CC3CCC1N3C2 (stereo not drawn)
Ki [2]: 12400 nM | Activity (Mus musculus [3]): 16% | Activity (Mus musculus [4]): 2% | Activity (Mus musculus [7]): 0%

Clc1ccc([C@@H]2C[C@H]3CC[C@@H]2N3)cn1 [(+)-EPIBATIDINE]
ED50 (Mus musculus [9]): 6 µg/kg | ED50 (Mus musculus [10]): 4 µg/kg | ED50 (Mus musculus [11]): 4 µg/kg

c1cnc2c(c1)C1CCC2N1 (stereo not drawn)
Activity [12]: < 15% | Activity [8]: 0%

CN1C2CCC1C(c1ccc(Cl)nc1)C2 (stereo not drawn)
AD50 (Mus musculus [1]): 0.048 µg/kg | Activity (Mus musculus [13]): 0% | Ki [2]: 0.038 nM | ED50 (Mus musculus [9]): 4.4 µg/kg | ED50 (Mus musculus [10]): 3 µg/kg | ED50 (Mus musculus [11]): 3 µg/kg | inhibition in vivo at 0.0005 mg/kg (Mus musculus [14]): 23%

C1=CC2NC1c1ccncc12 (stereo not drawn)
Activity [12]: < 15% | Activity [8]: 0%

Fc1ncc(C2CC3NC2c2ccccc23)cc1-c1ccccc1 (stereo not drawn)
Ki [2]: 128 nM | Activity [8]: 0%

c1cc2c(cn1)C1CCC2N1 (stereo not drawn)
Activity [12]: < 15% | Activity [8]: 0%

Cc1cc(Cl)ncc1C1CC2CCC1N2 (stereo not drawn)
AD50 (Mus musculus [1]): 400 µg/kg | Activity (Mus musculus [3]): 20% | Activity (Mus musculus [15]): 0% | Activity (Mus musculus [4]): 4% | AD50 (Mus musculus [16]): 1200 µg/kg | Activity (Mus musculus [7]): 0%
